Test [1] concerns the target T1, Serine/threonine-protein kinase LATS1 (Homo sapiens) (UniProt O95835).
T1 sequence (whole entry): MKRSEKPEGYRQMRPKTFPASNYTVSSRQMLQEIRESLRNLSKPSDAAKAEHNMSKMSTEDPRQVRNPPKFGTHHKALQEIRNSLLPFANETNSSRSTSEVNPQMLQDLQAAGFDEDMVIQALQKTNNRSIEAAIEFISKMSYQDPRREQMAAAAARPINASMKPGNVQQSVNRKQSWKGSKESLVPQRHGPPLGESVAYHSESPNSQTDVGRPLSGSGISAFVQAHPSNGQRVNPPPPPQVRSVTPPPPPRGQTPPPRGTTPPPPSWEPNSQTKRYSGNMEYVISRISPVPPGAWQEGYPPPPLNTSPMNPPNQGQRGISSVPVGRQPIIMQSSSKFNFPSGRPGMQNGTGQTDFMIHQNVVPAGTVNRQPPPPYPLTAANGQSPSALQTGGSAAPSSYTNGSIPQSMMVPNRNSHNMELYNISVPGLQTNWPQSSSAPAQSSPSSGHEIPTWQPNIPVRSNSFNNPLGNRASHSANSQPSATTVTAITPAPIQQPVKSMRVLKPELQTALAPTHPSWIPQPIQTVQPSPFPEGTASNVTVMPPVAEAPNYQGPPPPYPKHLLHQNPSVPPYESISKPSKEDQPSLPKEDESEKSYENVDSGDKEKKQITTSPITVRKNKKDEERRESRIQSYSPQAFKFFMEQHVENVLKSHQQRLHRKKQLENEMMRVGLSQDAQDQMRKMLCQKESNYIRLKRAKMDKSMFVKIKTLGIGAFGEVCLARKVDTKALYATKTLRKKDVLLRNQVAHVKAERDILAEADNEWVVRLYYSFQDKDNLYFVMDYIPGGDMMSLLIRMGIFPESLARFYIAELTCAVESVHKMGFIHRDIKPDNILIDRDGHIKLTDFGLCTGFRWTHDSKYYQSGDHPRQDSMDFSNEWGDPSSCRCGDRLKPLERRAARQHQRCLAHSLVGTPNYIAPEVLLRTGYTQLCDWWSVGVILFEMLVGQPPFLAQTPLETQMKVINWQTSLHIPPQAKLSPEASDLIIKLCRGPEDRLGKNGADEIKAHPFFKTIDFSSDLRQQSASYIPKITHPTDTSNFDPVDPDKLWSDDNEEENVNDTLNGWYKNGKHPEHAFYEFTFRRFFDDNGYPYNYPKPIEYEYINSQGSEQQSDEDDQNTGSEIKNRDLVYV
Briefly: Selectivity interaction (Ambit KINOMEscan and KiNATiv profiling in Jurkat cells) EUB0000090b LATS1. Particulars: at 1 µM. Format: cell-based.

Test [2] is described as follows: Selectivity interaction (KinomeScan (DiscoverX)) EUB0000229b CDK2H. Particulars: at 1 µM.
Test [3] deals with Mitogen-activated protein kinase 9 (Homo sapiens, UniProt P45984). Briefly: Selectivity interaction (Kinase panel (Invitrogen)) EUB0000639a MAPK9. To be noted: at 200 nM.
Test [4] has as its target T2, Serine/threonine-protein kinase ULK3 (Homo sapiens) (UniProt Q6PHR2).
T2 sequence (whole entry): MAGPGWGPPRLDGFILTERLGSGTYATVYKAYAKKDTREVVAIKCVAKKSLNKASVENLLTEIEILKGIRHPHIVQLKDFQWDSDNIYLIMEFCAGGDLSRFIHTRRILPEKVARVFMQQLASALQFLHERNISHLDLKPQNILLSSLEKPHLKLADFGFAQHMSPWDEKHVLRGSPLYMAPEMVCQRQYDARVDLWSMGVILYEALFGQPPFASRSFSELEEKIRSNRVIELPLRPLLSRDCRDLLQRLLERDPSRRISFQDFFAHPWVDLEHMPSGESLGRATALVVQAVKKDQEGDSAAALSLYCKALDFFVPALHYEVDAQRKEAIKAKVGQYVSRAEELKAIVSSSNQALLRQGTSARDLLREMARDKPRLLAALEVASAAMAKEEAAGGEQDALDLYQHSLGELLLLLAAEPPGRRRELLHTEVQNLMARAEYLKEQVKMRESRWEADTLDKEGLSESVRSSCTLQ
Briefly: Selectivity interaction (KinomeScan (DiscoverX)) EUB0000092b ULK3. To be noted: at 10 µM.

For test [5], the target named is T3, Cyclin-dependent kinase 11A (Homo sapiens) (UniProt Q9UQ88).
T3 sequence (whole entry): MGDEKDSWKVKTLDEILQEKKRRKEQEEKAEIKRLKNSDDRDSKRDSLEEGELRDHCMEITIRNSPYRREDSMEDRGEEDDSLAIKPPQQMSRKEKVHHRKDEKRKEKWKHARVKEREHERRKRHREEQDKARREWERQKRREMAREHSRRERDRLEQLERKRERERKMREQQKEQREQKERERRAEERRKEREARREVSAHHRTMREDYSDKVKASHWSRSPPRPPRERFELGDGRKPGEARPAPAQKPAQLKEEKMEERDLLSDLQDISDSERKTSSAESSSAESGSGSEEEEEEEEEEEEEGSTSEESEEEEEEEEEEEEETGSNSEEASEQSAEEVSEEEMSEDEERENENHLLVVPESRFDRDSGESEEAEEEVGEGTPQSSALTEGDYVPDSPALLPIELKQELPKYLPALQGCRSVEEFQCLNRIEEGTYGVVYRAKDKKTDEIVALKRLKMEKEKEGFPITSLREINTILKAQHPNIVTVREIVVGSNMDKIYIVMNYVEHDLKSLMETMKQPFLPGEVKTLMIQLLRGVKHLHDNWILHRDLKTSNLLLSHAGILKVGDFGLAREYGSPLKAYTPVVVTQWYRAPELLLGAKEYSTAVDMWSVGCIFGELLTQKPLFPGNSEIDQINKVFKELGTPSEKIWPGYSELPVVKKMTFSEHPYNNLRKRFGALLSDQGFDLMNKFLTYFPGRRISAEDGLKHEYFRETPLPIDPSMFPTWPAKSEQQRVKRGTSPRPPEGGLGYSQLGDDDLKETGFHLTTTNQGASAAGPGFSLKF
Briefly: Selectivity interaction (KinomeScan (DiscoverX)) EUB0000618a CDK11A. To be noted: at 10 µM.

% of control, % binding and % of inhibition data for five compounds are collected here from ChEMBL document CHEMBL5465560, “Selectivity Literature for EUbOPEN Chemogenomic Library” (2024).

Sequence of Mitogen-activated protein kinase 9 (P45984 whole entry, looked up): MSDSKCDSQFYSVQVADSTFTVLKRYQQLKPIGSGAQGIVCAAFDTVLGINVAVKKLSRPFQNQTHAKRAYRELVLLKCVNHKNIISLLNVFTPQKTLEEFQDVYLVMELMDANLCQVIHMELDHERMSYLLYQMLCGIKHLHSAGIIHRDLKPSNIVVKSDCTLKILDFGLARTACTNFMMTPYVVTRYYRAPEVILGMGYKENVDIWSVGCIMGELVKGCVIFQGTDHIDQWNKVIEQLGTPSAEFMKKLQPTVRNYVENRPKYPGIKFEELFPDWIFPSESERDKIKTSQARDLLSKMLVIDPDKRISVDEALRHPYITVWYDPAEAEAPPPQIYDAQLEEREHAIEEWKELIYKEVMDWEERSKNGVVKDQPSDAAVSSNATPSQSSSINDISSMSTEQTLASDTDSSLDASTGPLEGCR

In test [1], `CN(C)C/C=C/C(=O)Nc1ccc(C(=O)N2CCCC(Nc3ncc(Cl)c(-c4c[nH]c5ccccc45)n3)C2)cc1` (stereo not given) displayed a % of control of 84%.

Compound `COc1cc(N(C)c2ccnc3ccc(C(F)(F)F)cc23)cc(OC)c1OC` came in with a % binding in test [2] of 100%. In turn, `CC[C@@H]1[C@H](F)C(=O)N[C@@H]1COc1nccc2cc(C(N)=O)c(OC)cc12` [ZIMLOVISERTIB] gave a % of inhibition in test [3] of 2.83%.

`CCC(=O)N1CCN(c2ccc(-n3c(=O)ccc4cnc5ccc(-c6cnc7ccccc7c6)cc5c43)cc2C(F)(F)F)CC1` returned a % of control in test [4] of 100%.

On to `O[C@H]1CC[C@H](Nc2ncc3nc(Nc4c(F)cc(F)cc4F)n([C@H]4CCOC4)c3n2)CC1`, for which, in test [5], the % of control was found to be 100%.
